One data set deals with α4β2 nicotine receptor (Rattus norvegicus, UniProt P09483+P12390). As to the kind of experiment: Test A: [3H]cytisine binding.
A further data set relates to striatal synaptosomes. As to the kind of experiment: Test D: striatal [3H]dopamine release. It is filed as cell-based, rat.
In data set [1] the test system is nicotinic acetylcholine receptor (nAChR). As to the kind of experiment: Test C: 86Rb+ efflux from rat cortical synaptosomes. In kind it is cell-based.
The next data set has as its target dopamine D2 receptors (Homo sapiens, UniProt P14416). As to the kind of experiment: Binding to dopamine D2 receptors.
The next data set deals with serotonin transporter (Homo sapiens, UniProt P31645). As to the kind of experiment: Binding to serotonin transporter sites.
Chain of serotonin transporter (P31645 whole entry): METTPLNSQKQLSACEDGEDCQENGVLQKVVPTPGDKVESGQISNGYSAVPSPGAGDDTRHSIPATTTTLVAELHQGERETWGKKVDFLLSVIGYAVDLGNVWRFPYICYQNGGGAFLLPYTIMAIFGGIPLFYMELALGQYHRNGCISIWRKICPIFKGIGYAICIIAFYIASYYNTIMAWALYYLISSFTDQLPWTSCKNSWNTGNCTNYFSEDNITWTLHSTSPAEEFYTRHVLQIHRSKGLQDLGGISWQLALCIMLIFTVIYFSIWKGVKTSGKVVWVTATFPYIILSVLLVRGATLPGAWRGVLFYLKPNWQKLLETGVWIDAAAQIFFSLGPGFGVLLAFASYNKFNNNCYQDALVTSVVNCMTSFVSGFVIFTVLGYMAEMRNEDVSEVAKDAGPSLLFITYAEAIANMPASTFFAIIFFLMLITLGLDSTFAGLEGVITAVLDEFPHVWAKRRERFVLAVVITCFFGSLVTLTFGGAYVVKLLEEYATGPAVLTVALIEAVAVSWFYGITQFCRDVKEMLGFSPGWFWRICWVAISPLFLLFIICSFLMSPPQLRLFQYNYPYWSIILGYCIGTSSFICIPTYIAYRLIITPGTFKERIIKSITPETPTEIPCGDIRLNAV
For the next data set, the target named is dopamine transporter (Homo sapiens, UniProt Q01959). As to the kind of experiment: Binding to dopamine transporter sites.
Chain of dopamine transporter (Q01959 whole entry): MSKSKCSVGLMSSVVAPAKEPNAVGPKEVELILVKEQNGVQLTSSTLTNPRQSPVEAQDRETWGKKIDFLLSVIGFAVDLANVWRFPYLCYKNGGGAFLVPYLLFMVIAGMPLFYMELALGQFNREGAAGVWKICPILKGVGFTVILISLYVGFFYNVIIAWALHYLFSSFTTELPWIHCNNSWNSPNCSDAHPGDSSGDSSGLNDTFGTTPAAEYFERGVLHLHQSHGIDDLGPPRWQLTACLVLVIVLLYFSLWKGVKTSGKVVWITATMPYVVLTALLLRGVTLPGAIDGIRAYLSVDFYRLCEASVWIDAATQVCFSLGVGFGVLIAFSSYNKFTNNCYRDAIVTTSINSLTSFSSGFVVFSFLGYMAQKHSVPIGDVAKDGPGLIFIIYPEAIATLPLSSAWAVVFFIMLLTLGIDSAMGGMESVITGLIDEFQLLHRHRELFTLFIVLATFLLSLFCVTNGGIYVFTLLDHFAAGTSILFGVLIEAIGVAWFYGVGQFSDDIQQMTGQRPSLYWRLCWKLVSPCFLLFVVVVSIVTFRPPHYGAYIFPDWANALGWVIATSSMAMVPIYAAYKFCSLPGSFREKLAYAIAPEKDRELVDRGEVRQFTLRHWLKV
Data set [2] relates to ovariectomized female rats. As to the kind of experiment: Test F: object recognition memory test. In kind it is in vivo, rat.
Another data set relates to hippocampal synaptosomes. As to the kind of experiment: Test E: [3H]ACh release. In kind it is cell-based, rat. As for the experimental part:
Drug-induced release of [^3H]ACh from hippocampal synaptosomes was measured as described by Sullivan et al. (1997). (J. Pharmacol. Exptl. Ther. 283: 235-246). The F4 synaptosomal fraction was washed with Kreb's buffer containing 118.5 mM NaCl, 25 mM NaHCO3, 1.2 mM KCl, 1.2 mM KH2PO4, 2.5 mM CaCl2, 2.5 mM MgCl2, 10 mM glucose gassed with 95% O2/5% CO2 to pH 7.4 and re-suspended at 1 mg protein/mL. The synaptosomes were loaded with [^3H]choline by incubation with 0.8 μM [^3H]choline (2 Ci/mmol). Aliquots of the incubation mixture were then loaded into the perfusion chamber of a Brandell harvester and perfused with Kreb's buffer (37° C.) at a flow rate of 0.25 mL/min. Three-minute fractions were collected and measured for radioactivity. Drugs for study were administered as 20-s pulses. The [^3H]ACh release evoked by study compounds was normalized to (−)-nicotine-evoked release and to the total radioactivity accumulated by synaptosomes. Evoked release of [^3H]ACh from rat hippocampal synaptosomes was measured as the area under the peak above base release. The EC50 value is determined by nonlinear least squares regression analysis.

The target in data set [3] is α4β2 nicotinic acetylcholine receptor subtype (Rattus norvegicus, UniProt P09483+P12390). Conditions: cited from earlier work.
Chain of α4β2 nicotinic acetylcholine receptor subtype (P09483 31-630): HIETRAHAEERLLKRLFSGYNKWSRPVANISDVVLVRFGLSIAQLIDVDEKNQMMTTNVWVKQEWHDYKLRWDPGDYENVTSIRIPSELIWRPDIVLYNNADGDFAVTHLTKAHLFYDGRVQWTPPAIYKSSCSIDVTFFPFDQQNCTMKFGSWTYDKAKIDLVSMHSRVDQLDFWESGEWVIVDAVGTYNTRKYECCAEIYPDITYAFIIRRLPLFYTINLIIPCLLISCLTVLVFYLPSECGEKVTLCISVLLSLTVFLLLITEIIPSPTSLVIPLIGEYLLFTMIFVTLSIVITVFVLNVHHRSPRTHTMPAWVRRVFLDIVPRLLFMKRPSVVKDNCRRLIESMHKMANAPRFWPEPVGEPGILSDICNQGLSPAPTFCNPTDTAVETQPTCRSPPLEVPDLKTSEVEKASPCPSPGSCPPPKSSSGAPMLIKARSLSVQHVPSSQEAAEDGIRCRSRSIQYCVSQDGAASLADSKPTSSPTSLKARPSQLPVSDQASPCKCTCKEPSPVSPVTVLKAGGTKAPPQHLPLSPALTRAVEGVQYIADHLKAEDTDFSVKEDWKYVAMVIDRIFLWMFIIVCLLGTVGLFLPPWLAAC
Chain of α4β2 nicotinic acetylcholine receptor subtype (P12390 25-500): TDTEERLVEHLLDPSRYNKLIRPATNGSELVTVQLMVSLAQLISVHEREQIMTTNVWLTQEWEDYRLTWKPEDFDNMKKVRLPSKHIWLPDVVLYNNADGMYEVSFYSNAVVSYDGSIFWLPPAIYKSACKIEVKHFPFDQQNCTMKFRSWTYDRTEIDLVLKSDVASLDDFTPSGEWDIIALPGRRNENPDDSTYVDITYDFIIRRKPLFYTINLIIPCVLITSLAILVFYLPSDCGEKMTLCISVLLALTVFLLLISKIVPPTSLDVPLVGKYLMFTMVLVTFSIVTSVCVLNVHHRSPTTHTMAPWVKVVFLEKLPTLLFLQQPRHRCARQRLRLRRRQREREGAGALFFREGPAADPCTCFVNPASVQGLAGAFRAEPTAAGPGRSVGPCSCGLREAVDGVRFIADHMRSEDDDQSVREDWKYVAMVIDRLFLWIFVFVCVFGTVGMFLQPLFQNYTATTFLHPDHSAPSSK
Data set [4] addresses neuronal [3H]-cytisine binding site (Homo sapiens, UniProt P17787+P43681). Conditions: read-out: Ki, neuronal [3H]-cytisine binding site; cited from earlier work.
The next data set deals with nerve-injured mice. As to the kind of experiment: Test G: Chung model of neuropathic pain, inhibition of tactile sensitivity. In kind it is in vivo, mouse. Here is the method: After hemostasis is confirmed, the wound is sutured with 3-0 silk thread and the skin closed with sterile wound clips. The animals are fully mobile within thirty minutes of cessation of anesthetic. As a control, in a separate group of animals, a sham surgery identical to the above (but without nerve ligation) is performed. Nociception is evaluated by responsiveness to multiple applications (10 per hindpaw) of a single vF filament to the plantar surface of each hind paw. When the stimulus is of sufficient force, the mouse will lick, withdraw and/or shake the paw; this action represents the behavioral endpoint. In nerve-injured mice, a vF filament (#3.61) exerting 3.3 mN of force elicited 66±1.3% responsiveness on the paw ipsilateral to the injury.
Inhibition of Tactile Sensitivity. Varying doses of the compounds are administered to test for inhibition of tactile sensitivity. Percent inhibition is determined relative to the mean number of paw withdrawals (PW) elicited by force and according to the following equation: [formula] Each mouse serves as its own control.
Three groups of animals were used for this experiment. Animals in each group received an intrathecal injection of physiological saline to assess the control response. […] The responses were assessed as described above.

For the next data set, the system named is Male Wistar rats. The conditions noted are these: rat, in vivo.
Data set [5] concerns nicotinic acetylcholine receptor as PC12 cells. The conditions noted are these: cited from earlier work.
In the next data set the target is α7 subtype (Homo sapiens, UniProt P36544). The conditions noted are these: read-out: Ki at the α7 subtype; cited from earlier work.
Chain of α7 subtype (P36544 23-502): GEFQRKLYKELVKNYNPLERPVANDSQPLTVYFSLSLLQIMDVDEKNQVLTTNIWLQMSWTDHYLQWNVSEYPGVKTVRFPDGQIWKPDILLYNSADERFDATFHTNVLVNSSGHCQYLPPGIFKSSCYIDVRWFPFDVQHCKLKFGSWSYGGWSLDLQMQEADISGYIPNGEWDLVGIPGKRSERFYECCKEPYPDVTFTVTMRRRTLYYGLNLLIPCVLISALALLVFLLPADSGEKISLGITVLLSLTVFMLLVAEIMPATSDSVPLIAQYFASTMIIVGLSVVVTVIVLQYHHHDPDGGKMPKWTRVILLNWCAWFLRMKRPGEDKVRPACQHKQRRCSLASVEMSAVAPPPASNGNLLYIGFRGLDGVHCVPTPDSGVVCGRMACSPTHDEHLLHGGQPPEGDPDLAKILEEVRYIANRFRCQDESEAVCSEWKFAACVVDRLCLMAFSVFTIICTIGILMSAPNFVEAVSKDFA
Data set [6] deals with human muscle nicotinic acetylcholine receptor subtype (Homo sapiens, UniProt P02708+P07510+P11230+Q07001). Conditions: cited from earlier work.
Where [7] appears, read: rat brain, compounds tested in racemic form, read-out: Ki-[3H]Cytisine.

pKi: −log10 of the molar value. Counter-ions that a name gives are not always drawn. Like-named read-outs stand apart in the source and are kept apart here.

Chain of α4β2 nicotine receptor (P09483 31-630): as the sequence (P09483 31-630) above
Chain of α4β2 nicotine receptor (P12390 25-500): as the sequence (P12390 25-500) above
Chain of dopamine D2 receptors (P14416 whole entry): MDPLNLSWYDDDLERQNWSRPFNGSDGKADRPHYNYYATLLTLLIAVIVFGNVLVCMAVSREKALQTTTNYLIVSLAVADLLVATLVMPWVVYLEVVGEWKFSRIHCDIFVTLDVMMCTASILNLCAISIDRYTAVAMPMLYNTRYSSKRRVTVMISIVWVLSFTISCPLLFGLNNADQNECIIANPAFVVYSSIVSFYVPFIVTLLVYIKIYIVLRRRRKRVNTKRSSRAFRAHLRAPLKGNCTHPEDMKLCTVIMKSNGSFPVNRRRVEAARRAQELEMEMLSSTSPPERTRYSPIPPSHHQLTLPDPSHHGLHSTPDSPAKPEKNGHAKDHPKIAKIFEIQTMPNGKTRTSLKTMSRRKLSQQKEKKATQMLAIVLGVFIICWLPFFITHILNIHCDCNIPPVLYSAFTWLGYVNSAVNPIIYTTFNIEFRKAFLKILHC
Chain of neuronal [3H]-cytisine binding site (P43681 29-627): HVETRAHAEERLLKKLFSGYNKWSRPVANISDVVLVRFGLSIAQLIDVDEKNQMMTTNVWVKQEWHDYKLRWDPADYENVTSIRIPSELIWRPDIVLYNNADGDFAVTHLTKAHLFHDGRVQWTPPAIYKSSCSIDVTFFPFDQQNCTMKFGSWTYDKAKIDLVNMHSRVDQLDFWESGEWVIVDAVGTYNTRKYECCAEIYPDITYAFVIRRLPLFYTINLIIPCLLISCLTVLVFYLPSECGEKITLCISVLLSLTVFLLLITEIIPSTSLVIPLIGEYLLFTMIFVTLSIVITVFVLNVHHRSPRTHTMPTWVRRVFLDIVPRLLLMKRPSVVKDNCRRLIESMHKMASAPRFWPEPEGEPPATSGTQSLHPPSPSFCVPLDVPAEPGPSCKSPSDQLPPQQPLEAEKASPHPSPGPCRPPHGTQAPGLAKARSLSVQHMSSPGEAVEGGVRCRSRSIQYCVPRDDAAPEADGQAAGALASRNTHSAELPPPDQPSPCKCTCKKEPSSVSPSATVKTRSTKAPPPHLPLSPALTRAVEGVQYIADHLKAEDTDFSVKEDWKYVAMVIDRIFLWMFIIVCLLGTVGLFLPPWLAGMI
Chain of neuronal [3H]-cytisine binding site (P17787 26-502): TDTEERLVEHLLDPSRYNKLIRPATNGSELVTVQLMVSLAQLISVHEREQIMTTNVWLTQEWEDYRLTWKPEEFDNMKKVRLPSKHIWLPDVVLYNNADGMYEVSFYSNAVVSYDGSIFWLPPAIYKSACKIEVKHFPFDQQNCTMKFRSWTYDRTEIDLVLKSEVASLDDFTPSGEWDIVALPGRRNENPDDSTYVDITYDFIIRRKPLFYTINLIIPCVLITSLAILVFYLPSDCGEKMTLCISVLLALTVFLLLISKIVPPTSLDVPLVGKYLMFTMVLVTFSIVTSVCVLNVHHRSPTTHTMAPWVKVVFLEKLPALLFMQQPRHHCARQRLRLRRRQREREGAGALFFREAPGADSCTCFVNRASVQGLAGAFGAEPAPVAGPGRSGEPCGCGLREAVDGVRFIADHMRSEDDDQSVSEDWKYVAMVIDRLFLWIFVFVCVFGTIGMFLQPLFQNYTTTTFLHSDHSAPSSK

On to `CN1CCCCC1CC1=Cc2ccccc2C1` (racemic) [Compound 13, 1-Methyl-2-(2-indenyl)methylpiperidine hydrochloride], for which the pKi on α4β2 nicotine receptor (setting [7]) was 5.10.

As to `COc1ccc2c(c1)CC(CC1CCCCN1C)=C2` (racemic) [Compound 14, 1-Methyl-2-(6-methoxyinden-2-yl)methylpiperidine hydrochloride], at α4β2 nicotine receptor (setting [7]), the pKi was 5.05.

Consider `CN1CCCCC1CC1=Cc2ccc(O)cc2C1` (racemic) [Compound 15, 1-Methyl-2-(6-hydroxyinden-2-yl)methylpiperidine hydrochloride], for which, at α4β2 nicotine receptor (setting [7]), the negative-log Ki (pKi) is below 5.00.

`CN1CCCCC1C1CCc2ccccc2O1` (single isomer, unassigned) (as salt: salt) [Compound 1, erythro-2-(1-Methylpiperidin-2-yl)chroman] registered a melting point of 164 to 166 °C.

Turning to `CN1CCCCC1C1CCc2ccccc2O1` (single isomer, unassigned) [Compound 1, erythro-2-(1-Methylpiperidin-2-yl)chroman], the “stimulation of [3H]dopamine release (in words)” value in the data set with striatal synaptosomes was “failed to stimulate the release”. For the same compound, in data set [1], the “peak response of 86Rb+ release (in words)” value is listed as “could match the peak response of S-(−)-nicotine”. For the same compound, the “potency to stimulate the release of 86Rb+ (in words)” value in data set [1] is given as “lower potency”. The negative logarithm of the Ki (pKi) on dopamine D2 receptors, at serotonin transporter and at dopamine transporter was below 5.00 in each case.

For `CN1CCCCC1C1CCc2ccc(O)cc2O1` (single isomer, unassigned) [Compound 8, threo-7-Hydroxy-2-(1-methylpiperidin-2-yl)chroman], the negative logarithm of the Ki (pKi) at dopamine D2 receptors, at serotonin transporter and on dopamine transporter was below 5.00 throughout.

Consider `CN1CCCC1C1CCc2ccc(O)cc2O1` (single isomer, unassigned) [Compound 11, erythro-7-Hydroxy-2-(1-methylpyrrolidin-2-yl)chroman], for which the “exploration times versus saline-treated controls (in words)” value in data set [2] (exploration phase, 1 μmol/kg/day) was “not significantly different”. The “time spent exploring the new object” value in data set [2] (recognition phase four hours after exploration, after 7 days s.c. osmotic mini pump, compound 11 1 μmol/kg/day, ARICEPT 1 mg/kg/day) is 80.5±5 % (SEM). For the same compound, the “stimulation of [3H]dopamine release (in words)” value with striatal synaptosomes (FIG. 10, compound 1 at doses of up to 10 μM) is “stimulates the release”. In addition, in the data set with striatal synaptosomes (Table 2 summary in words), the “[3H]Dopamine release” value is “High intrinsic activity”. In the data set with hippocampal synaptosomes (Table 2 summary in words), the “[3H]ACh release” value was “No intrinsic activity”. Also, in the data set with hippocampal synaptosomes (cortical synaptosomes as worded, FIG. 11), the “stimulation of [3H]ACh release (in words)” value is given as “little intrinsic activity”.

In the case of `Cc1ncccc1OC[C@@H]1CCCN1` [ABT-089 (S)], in data set [3], the “less potent than ABT-594 as an inhibitor of [3H]-nicotine binding” value is reported as “about 300 fold”.

In the case of `Cc1cc([C@@H]2CCCN2C)on1` [ABT-418], the pKi in data set [4] is 8.35.

Turning to `COc1cc2c(cc1OC)C(=O)C(CC1CCN(Cc3ccccc3)CC1)C2` (centres unmarked) [ARICEPT, reference compound], the “time spent exploring the new object” value in data set [2] (rat, in vivo) is on record as 60.1±5.4 % (SEM).

For the compound `CN1CCCCC1C1CCc2ccc(O)cc2O1` (stereo not drawn) [Compound 3, erythro-7-Hydroxy-2-(1-methylpiperidin-2-yl)chroman], in the data set with nerve-injured mice (intrathecal 30, 60 and 100 pmol), the “inhibition of tactile sensitivity (in words)” value is given as “dose-dependent inhibition”. The “inhibition of tactile sensitivity” value with nerve-injured mice (intrathecal, highest dose tested 100 pmol, FIG. 13) was determined as 60%. The “concentration at which peak effects on [3H]dopamine release are obtained” value with striatal synaptosomes was around 10 µM. Also, the “effect on K+-evoked release of [3H]dopamine (in words)” value in the data set with striatal synaptosomes is “appeared to suppress”. Besides, the “stimulation of [3H]dopamine release (in words)” value with striatal synaptosomes is “dose-dependent stimulation”. The “potency to stimulate the release of 86Rb+ (in words)” value in data set [1] (compound 3 at 1, 5, 10 and 100 μM, compound 1 at 10 and 100 μM, versus S-(−)-nicotine, FIG. 9) is reported as “comparable potency”. Further, the negative-log Ki (pKi) at dopamine D2 receptors, on serotonin transporter and on dopamine transporter was below 5.00 throughout. In addition, the “stimulation of [3H]ACh release (in words)” value in the data set with hippocampal synaptosomes was “can stimulate the release”. For the same compound, the “time of death post-injection” value with Male Wistar rats (male, Wistar, ip) is at most 4 min. The “lethal effects antagonized by mecamylamine pretreatment” value in the data set with Male Wistar rats is “three of the four animals”. Besides, the “observed effect after administration” value in the data set with Male Wistar rats (ip) was “severe convulsions”.

With `CN1CCCCC1C1CCc2ccc(O)cc2O1` (stereo not drawn) [Compound 4, erythro-7-Hydroxy-2-(1-methylpiperidin-2-yl)chroman], the “[3H]Dopamine release” value in the data set with striatal synaptosomes is “Low to moderate activity”. In addition, the “86Rb+ efflux” value in [1] is on record as “High intrinsic activity”. For the same compound, the “[3H]ACh release” value with hippocampal synaptosomes is listed as “High intrinsic activity”.

In the case of `CN1CCCCC1C1CCc2c(O)cccc2O1` (stereo not drawn) [Compound 5, erythro-5-Hydroxy-2-(1-methylpiperidin-2-yl)chroman], the pKi at dopamine D2 receptors, on serotonin transporter and at dopamine transporter was below 5.00 in each case.

`O=c1cccc2n1C[C@@H]1CNC[C@H]2C1` [Cytisine, reference compound]: the negative logarithm of the Ki (pKi) at α4β2 nicotine receptor (Ki-[3H]Cytisine) was 9.05; on α4β2 nicotine receptor (read-out: Ki-[3H]Cytisine) it was 8.56.

Regarding `CNCC/C=C/c1cccnc1` [RJR-2403], the “receptor activation (in words)” value in data set [5] and in [6] was “does not significantly activate” each time. In addition, the negative-log Ki (pKi) at α7 subtype is 4.44.

As for `CN1CCC[C@H]1c1cccnc1` [S-(−)-nicotine, reference compound], the “stimulation of [3H]dopamine release (in words)” value with striatal synaptosomes is “dose-dependent”.

For orientation: pKi means −log10 of the Ki, conventionally taken in molar units. What is called melting point is the temperature of the solid-liquid transition.
